Assay results taken from the NIST ThermoML archive (doi:10.1016/j.jct.2005.10.006).

Test: xn = mol fraction of the nth substance listed
Conditions: Fluid (supercritical or subcritical phases), Spherical resonator

N#N [nitrogen] + C
Conditions	speed of sound [m/s]
250 K, 30044 kPa, x1 = 0.1	707.81
250 K, 30196 kPa, x1 = 0.2	665.27
275 K, 105.1 kPa, x1 = 0.2	405.31
275 K, 249.6 kPa, x1 = 0.2	404.93
275 K, 498.5 kPa, x1 = 0.1	416.53
275 K, 498.5 kPa, x1 = 0.2	404.25
275 K, 998 kPa, x1 = 0.2	402.93
275 K, 998.1 kPa, x1 = 0.1	414.81
275 K, 1999 kPa, x1 = 0.1	411.66
275 K, 2001 kPa, x1 = 0.2	400.6
275 K, 3010 kPa, x1 = 0.2	398.72
275 K, 3012 kPa, x1 = 0.1	408.95
275 K, 4014 kPa, x1 = 0.2	397.39
275 K, 4024 kPa, x1 = 0.1	406.81
275 K, 5030 kPa, x1 = 0.2	396.69
275 K, 6045 kPa, x1 = 0.2	396.72
275 K, 6053 kPa, x1 = 0.1	404.7
275 K, 7052 kPa, x1 = 0.2	397.57
275 K, 8005 kPa, x1 = 0.1	406.18
275 K, 8072 kPa, x1 = 0.2	399.34
275 K, 9089 kPa, x1 = 0.2	402.1
275 K, 9957 kPa, x1 = 0.1	411.99
275 K, 10115 kPa, x1 = 0.2	405.96
275 K, 11147 kPa, x1 = 0.2	410.97
275 K, 12035 kPa, x1 = 0.1	423.61
275 K, 12036 kPa, x1 = 0.1	423.62
275 K, 12160 kPa, x1 = 0.2	416.99
275 K, 13171 kPa, x1 = 0.2	424.08
275 K, 14013 kPa, x1 = 0.2	430.77
275 K, 14111 kPa, x1 = 0.1	440.93
275 K, 15003 kPa, x1 = 0.2	439.49
275 K, 15988 kPa, x1 = 0.1	460.87
275 K, 15990 kPa, x1 = 0.2	449
275 K, 17009 kPa, x1 = 0.2	459.59
275 K, 17997 kPa, x1 = 0.2	470.47
275 K, 18033 kPa, x1 = 0.1	486.14
275 K, 19084 kPa, x1 = 0.2	483.04
275 K, 19680 kPa, x1 = 0.2	490.13
275 K, 20228 kPa, x1 = 0.1	515.84
275 K, 24821 kPa, x1 = 0.1	581.11
275 K, 29257 kPa, x1 = 0.1	642.82
275 K, 29972 kPa, x1 = 0.2	619.3
300 K, 199.5 kPa, x1 = 0.1	434.92
300 K, 248.5 kPa, x1 = 0.2	421.88
300 K, 480.1 kPa, x1 = 0.5422	386.4
300 K, 498 kPa, x1 = 0.1	434.24
300 K, 498.6 kPa, x1 = 0.2	421.47
300 K, 707.5 kPa, x1 = 0.5422	386.45
300 K, 996.8 kPa, x1 = 0.1	433.15
300 K, 1191 kPa, x1 = 0.5422	386.59
300 K, 1998 kPa, x1 = 0.1	431.25
300 K, 1999 kPa, x1 = 0.2	419.47
300 K, 2344 kPa, x1 = 0.5422	387.23
300 K, 3003 kPa, x1 = 0.1	429.75
300 K, 4015 kPa, x1 = 0.2	418.25
300 K, 4016 kPa, x1 = 0.1	428.73
300 K, 4632 kPa, x1 = 0.5422	389.87
300 K, 5019 kPa, x1 = 0.1	428.26
300 K, 6030 kPa, x1 = 0.1	428.38
300 K, 6037 kPa, x1 = 0.2	419.02
300 K, 6838 kPa, x1 = 0.5422	394.27
300 K, 7046 kPa, x1 = 0.1	429.17
300 K, 8068 kPa, x1 = 0.2	422.18
300 K, 8086 kPa, x1 = 0.1	430.75
300 K, 8994 kPa, x1 = 0.5422	400.43
300 K, 10104 kPa, x1 = 0.2	428.03
300 K, 10134 kPa, x1 = 0.1	436.25
300 K, 11262 kPa, x1 = 0.5422	408.61
300 K, 11983 kPa, x1 = 0.2	435.96
300 K, 12193 kPa, x1 = 0.1	445.26
300 K, 14023 kPa, x1 = 0.2	447.31
300 K, 14237 kPa, x1 = 0.1	457.66
300 K, 16022 kPa, x1 = 0.2	461.03
300 K, 16322 kPa, x1 = 0.1	473.66
300 K, 17969 kPa, x1 = 0.2	476.54
300 K, 18326 kPa, x1 = 0.1	491.78
300 K, 19736 kPa, x1 = 0.2	492.16
300 K, 19924 kPa, x1 = 0.1	507.75
300 K, 24934 kPa, x1 = 0.1	563.32
300 K, 30250 kPa, x1 = 0.1	625.49
350 K, 202.3 kPa, x1 = 0.1	466.26
350 K, 248.7 kPa, x1 = 0.2	452.58
350 K, 498.6 kPa, x1 = 0.2	452.54
350 K, 502 kPa, x1 = 0.1	466.1
350 K, 552.3 kPa, x1 = 0.5422	415.67
350 K, 814.8 kPa, x1 = 0.5422	415.97
350 K, 1001 kPa, x1 = 0.1	465.83
350 K, 1374 kPa, x1 = 0.5422	416.67
350 K, 1999 kPa, x1 = 0.2	452.66
350 K, 2001 kPa, x1 = 0.1	465.52
350 K, 2717 kPa, x1 = 0.5422	418.62
350 K, 3007 kPa, x1 = 0.1	465.52
350 K, 4009 kPa, x1 = 0.2	453.86
350 K, 4012 kPa, x1 = 0.1	465.86
350 K, 5419 kPa, x1 = 0.5422	423.85
350 K, 6023 kPa, x1 = 0.1	467.64
350 K, 6042 kPa, x1 = 0.2	456.41
350 K, 8048 kPa, x1 = 0.1	471.02
350 K, 8070 kPa, x1 = 0.5422	430.68
350 K, 8140 kPa, x1 = 0.2	460.55
350 K, 9931 kPa, x1 = 0.2	465.36
350 K, 10069 kPa, x1 = 0.1	476.07
350 K, 10144 kPa, x1 = 0.2	466.02
350 K, 12122 kPa, x1 = 0.1	482.98
350 K, 12140 kPa, x1 = 0.2	472.93
350 K, 13507 kPa, x1 = 0.5422	449.48
350 K, 14143 kPa, x1 = 0.1	491.53
350 K, 14157 kPa, x1 = 0.2	481.39
350 K, 16162 kPa, x1 = 0.2	491.18
350 K, 16179 kPa, x1 = 0.1	501.83
350 K, 17867 kPa, x1 = 0.2	500.53
350 K, 18210 kPa, x1 = 0.1	513.66
350 K, 19448 kPa, x1 = 0.2	509.95
350 K, 19809 kPa, x1 = 0.1	523.96
400 K, 199.4 kPa, x1 = 0.1	494.39
400 K, 231.4 kPa, x1 = 0.2	480.07
400 K, 497.1 kPa, x1 = 0.1	494.48
400 K, 501.8 kPa, x1 = 0.2	480.26
400 K, 622 kPa, x1 = 0.5422	442.06
400 K, 918.4 kPa, x1 = 0.5422	442.56
400 K, 995.6 kPa, x1 = 0.1	494.7
400 K, 1551 kPa, x1 = 0.5422	443.69
400 K, 1990 kPa, x1 = 0.1	495.31
400 K, 2005 kPa, x1 = 0.2	481.61
400 K, 2989 kPa, x1 = 0.1	496.16
400 K, 3075 kPa, x1 = 0.5422	446.66
400 K, 3994 kPa, x1 = 0.1	497.25
400 K, 4015 kPa, x1 = 0.2	484.18
400 K, 6011 kPa, x1 = 0.1	500.22
400 K, 6027 kPa, x1 = 0.2	487.68
400 K, 6170 kPa, x1 = 0.5422	453.88
400 K, 8012 kPa, x1 = 0.1	504.2
400 K, 8046 kPa, x1 = 0.2	492.14
400 K, 9240 kPa, x1 = 0.5422	462.55
400 K, 10023 kPa, x1 = 0.1	509.28
400 K, 10077 kPa, x1 = 0.2	497.61
400 K, 12004 kPa, x1 = 0.2	503.66
400 K, 12054 kPa, x1 = 0.1	515.5
400 K, 14084 kPa, x1 = 0.1	522.78
400 K, 14562 kPa, x1 = 0.2	513.02
400 K, 15633 kPa, x1 = 0.5422	484.69
400 K, 16027 kPa, x1 = 0.2	519
400 K, 16081 kPa, x1 = 0.1	530.96
400 K, 16082 kPa, x1 = 0.1	530.96
400 K, 18039 kPa, x1 = 0.2	527.93
400 K, 18052 kPa, x1 = 0.1	539.93
400 K, 19788 kPa, x1 = 0.1	548.54
400 K, 20114 kPa, x1 = 0.2	537.94
